Assay results reported in article PMC7894523 (Chemistry (Weinheim an Der Bergstrasse, Germany), 2020).

Molecular target: T1, 15N-labeled carbohydrate recognition domain (CRD) of DC-SIGN (Homo sapiens, UniProt Q9NNX6)
T1 sequence (Q9NNX6 250-404 limits assumed): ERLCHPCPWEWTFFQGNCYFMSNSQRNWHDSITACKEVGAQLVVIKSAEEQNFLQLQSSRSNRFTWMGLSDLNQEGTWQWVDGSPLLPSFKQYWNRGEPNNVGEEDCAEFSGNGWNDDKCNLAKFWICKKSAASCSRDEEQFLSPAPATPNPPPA
Experiment: 1H-15N HSQC titration, chemical shift perturbation
Type: binding

Kd: 1500 ± 400 µM
SMILES: CC(=O)N[C@H]1[C@H](O[C@H]2[C@H](O[C@@H]3O[C@@H](C)[C@@H](O)[C@@H](O)[C@@H]3O)[C@@H](NC(C)=O)[C@H](OCCCCCN)O[C@@H]2CO)O[C@H](CO)[C@H](O)[C@@H]1O [compound 12, LDN-F]
